IC50 data for 87 compounds are collected here from PubChem BioAssay AID1645868 (Buhrlage Lab, Dana-Farber Cancer Institute and Novartis …, 2021).

SMILES strings stand for the structures. Active and inactive are the calls of the source.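 Rule for the calls: active = maximal percent inhibition of the deubiquitinase OTUD3 of at least 30% across the tested doses; inactive = the rest.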

The target in this assay is OTU domain-containing protein 3 (Homo sapiens) (UniProt Q5T2D3). The experiment in a line: Validation of screening hits, potency titration, in vitro enzymatic, OTU domain-containing protein 3 DUB inhibitors (AID 1645868). The conditions noted are these: purified OTUD3, ubiquitin-rhodamine cleavage fluorescence, 2 h.
Sequence of OTU domain-containing protein 3 (Homo sapiens) (Q5T2D3 whole entry, looked up, the tested form may be a part): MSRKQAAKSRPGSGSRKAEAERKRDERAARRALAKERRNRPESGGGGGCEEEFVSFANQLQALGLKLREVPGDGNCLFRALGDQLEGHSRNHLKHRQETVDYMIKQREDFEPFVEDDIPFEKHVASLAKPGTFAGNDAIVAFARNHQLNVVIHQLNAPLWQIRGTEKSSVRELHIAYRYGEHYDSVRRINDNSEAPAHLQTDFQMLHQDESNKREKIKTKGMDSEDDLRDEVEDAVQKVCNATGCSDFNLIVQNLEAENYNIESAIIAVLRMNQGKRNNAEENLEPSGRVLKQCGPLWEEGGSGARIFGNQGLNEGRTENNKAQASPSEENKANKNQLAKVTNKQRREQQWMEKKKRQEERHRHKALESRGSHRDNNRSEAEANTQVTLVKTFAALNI
As for `Cc1cc(C(=O)N2CCN(C3CCN(Cc4ccc(Cl)o4)CC3)C(=O)C2)c(C)o1`, the IC50 – broadly, the concentration that inhibits the measured activity by half – is > 50 µM (inactive).

In the case of `O=c1ccc(-c2noc(Cc3cccc(Cl)c3)n2)c[nH]1`, the IC50 is > 50 µM (inactive).

On to `COc1ccc(C(=O)Nc2n[nH]c(C)c2-c2cccc(C)c2)c(OC)c1`, for which the IC50 is 28.7 µM.

In the case of `CC(NC(=O)c1ccccc1)c1nc2ccccc2n1CC(=O)Nc1ccc2c(c1)OCO2` (configuration not stated), the IC50 is 3.53 µM.

Consider `Cc1nn(C)c2c1[C@@H](c1ccc(F)c(Br)c1)[C@H](NC(=O)c1ccccc1)C(=O)N2`, for which the IC50 is > 50 µM (inactive).

Regarding `O=C(CSc1nncc2ccccc12)Nc1ccc2c(c1)OCO2`, the IC50 is > 50 µM (inactive).

As for `O=C(Nc1nnc2n1CCCS2)c1cc2ccccc2o1`, the IC50 was > 50 µM (inactive).

With `O=C(c1cscn1)N1CCC2(CC1)CC1(CO2)Nc2ccccc2-n2cccc21` (configuration not stated), the IC50 was > 50 µM (inactive).

For `C=C1Nc2ccccc2C(=O)N1c1cccc(NC(=O)c2ccc(C)c(C)c2)c1`, the IC50 is > 50 µM (inactive).

On to `Cc1ccc(Nc2nc(Nc3cccc(Cl)c3)nc3nccnc23)cc1`, for which the IC50 was > 50 µM (inactive).

Consider `CCS(=O)(=O)N1CCc2cc(C(=O)Nc3ccc4c(c3)OCCO4)ccc21`, for which the IC50 is > 50 µM (inactive).

For `Cc1nc(Nc2c3ccccc3nc3ccccc23)sc1C`, the IC50 was > 50 µM (inactive).

Consider `c1ccc(-c2nc(-c3nnn(-c4ccccc4)c3-c3ccncc3)no2)cc1`, for which the IC50 is 26.8 µM.

Turning to `O=C(NCc1ccccc1)c1ccc(-c2ccc(N3CCCC3)nn2)cc1`, the IC50 is > 50 µM (inactive).

Take `CCCc1nc2sc3c(NCc4ccco4)ncnc3c2c2c1CCC2`: the IC50 was > 50 µM (inactive).

`COc1ccc(C)cc1NC(=O)C(NS(=O)(=O)c1ccc2c(c1)CCN2C(C)=O)C(C)C` (configuration not stated): the IC50 was > 50 µM (inactive).

Turning to `CC(=O)c1ccc(Cc2ncc(C(F)(F)F)cc2Cl)s1`, the IC50 was > 50 µM (inactive).

Turning to `O=C(Cn1c(-c2ccccc2)ncc(C(=O)NC2CC2)c1=O)Nc1ccccc1`, the IC50 was 25.5 µM.

With `CCCn1c(=O)n(CC(=O)c2ccccc2F)c2c(C(N)=O)nc(-c3ccco3)nc21`, the IC50 was > 50 µM (inactive).

On to `CCn1cc2c(n1)c(=O)n(Cc1ccccc1)c(=O)n2CC(=O)Nc1ccc(OC)cc1`, for which the IC50 is 12.1 µM.

As for `O=C(NCc1ccc(F)cc1)C1CCN(c2cnc(N3CCCCC3)nc2)CC1`, the IC50 is > 50 µM (inactive).

In the case of `Cc1ccc(C(=O)Nc2ccc(S(=O)(=O)N3CCCC3)cc2)cc1Br`, the IC50 was > 50 µM (inactive).

On to `Cc1cc(C)c(O)c(-c2cc(C(=O)Nc3ccccc3Cl)[nH]n2)c1`, for which the IC50 was 12.7 µM.

Regarding `FC(F)(F)c1ccccc1CCN1CCc2nc3ncc(Cl)cc3cc2C1`, the IC50 was > 50 µM (inactive).

For the compound `Cc1ccc(Cn2cc(-c3noc(-c4ccncc4)n3)nn2)cc1`, the IC50 was > 50 µM (inactive).

`N#Cc1cn(CC(=O)N2CCc3ccccc32)c2ccccc12`: the IC50 was > 50 µM (inactive).

With `COc1ccc2nc(Nc3nc(-c4cnc(N5CCOCC5)nc4C)cc(=O)[nH]3)nc(C)c2c1`, the IC50 is > 50 µM (inactive).

With `COc1ccc(C(=O)NCC(c2ccc3c(c2)CCCN3C)N2CCCC2)cc1` (configuration not stated), the IC50 is > 50 µM (inactive).

Take `Cc1ccc(NC(=O)Cn2cc(S(=O)(=O)N3CCCC3)ccc2=O)cc1`: the IC50 was 27.6 µM.

For `Cc1noc(-c2cc(=O)n(CC(=O)NCc3ccccc3)c3ccccc23)n1`, the IC50 was > 50 µM (inactive).

As for `O=C(Cn1c(=O)n(-c2ccccc2)c(=O)c2ccc(C(=O)NCc3ccc4c(c3)OCO4)cc21)NCCC1=CCCCC1`, the IC50 is 34.4 µM.

On to `CCC(=O)Nc1nc2cc(NC(=O)Nc3cc(C)cc(C)c3)ccc2s1`, for which the IC50 is 7.84 µM.

As for `COc1ccc(Cn2cnc3c([nH]c4ccc(Br)cc43)c2=O)cc1`, the IC50 was > 50 µM (inactive).

In the case of `CC(C)N(C(=O)Cn1c(=O)[nH]c2ccccc21)c1ccccc1`, the IC50 is > 50 µM (inactive).

With `Cc1sc(NC(=O)/C=C/c2ccco2)nc1-c1ccccc1`, the IC50 was > 50 µM (inactive).

Regarding `CCOc1ccccc1NC(=O)COc1cc(OC)ccc1C(=O)c1ccccc1`, the IC50 is > 5 µM (inactive).

For the compound `O=C(Nc1cccc(N2CCCC2=O)c1)c1cccc2cccnc12`, the IC50 was > 50 µM (inactive).

In the case of `CCc1cc2c(=O)[nH]c(Cc3ccc(OC)cc3)nc2s1`, the IC50 is 33.4 µM.

Consider `CN1CCN(C(=O)c2cc(-c3ccn(CC4CC4)n3)n3ccccc23)CC1`, for which the IC50 was > 50 µM (inactive).

Consider `FC(F)(F)c1cccc(Nc2nnc(-c3cccnc3)s2)c1`, for which the IC50 was > 50 µM (inactive).

Regarding `CC1CCN(c2cc(-n3cnc(C(=O)N4CCCCC4)c3)ncn2)CC1`, the IC50 is > 50 µM (inactive).

Take `FC(F)(F)c1cccc(CSc2ccc3nnc(-c4ccccn4)n3n2)c1`: the IC50 is > 50 µM (inactive).

On to `COCCN(C1CCN(CCc2ccc(Cl)cc2)CC1)S(=O)(=O)c1cccc2cccnc12`, for which the IC50 was > 50 µM (inactive).

Take `O=c1[nH]c(C2CCN(S(=O)(=O)c3ccc(S(=O)(=O)NC4CCCCC4)cc3)CC2)nc2c1nnn2Cc1c(Cl)cccc1Cl`: the 50% inhibitory concentration (IC50) was 18.5 µM.

In the case of `CCC(=O)Nc1ccc2c(c1)nc(CSc1nccc(C)n1)n2CC`, the IC50 was > 50 µM (inactive).

For `O=C(NC1CCN(c2nc(-c3cccnc3)nc3ccccc23)CC1)c1cccnc1`, the IC50 was > 50 µM (inactive).

For the compound `O=C(COc1ncnc2ccccc12)Nc1ccc2c(c1)OC1(CCCC1)O2`, the IC50 was 46.2 µM.

For the compound `Cc1oc(C2CC2)cc1C(=O)N1CCC2(CC1)CC1(CO2)Nc2ccccc2-n2cccc21` (configuration not stated), the IC50 was > 50 µM (inactive).

As to `Cc1cccc(C)c1NC(=O)Cn1c(=O)n(CCCCC(=O)NCc2ccc3c(c2)OCO3)c(=O)c2ccccc21`, the IC50 is 2.82 µM.

For the compound `Cc1cc(NC(=O)c2nnn(-c3ccccc3Cl)c2C)no1`, the IC50 is > 50 µM (inactive).

For `Cc1sc2ccn(C)c(=O)c2c1C(=O)NC1CCCC1`, the IC50 was 30.8 µM.

Turning to `Cc1cc2nc(/C=C/c3ccccc3)n(Cc3cccc(F)c3)c2cc1C`, the IC50 was > 50 µM (inactive).

For the compound `CCOc1ccc2c(c1)c(=O)c(C(=O)c1ccccc1)cn2CC(=O)Nc1ccc2c(c1)OCCO2`, the IC50 was 43 µM.

In the case of `Cc1nc2ccc(NC(=O)COc3ccccc3[N+](=O)[O-])cc2s1`, the IC50 was 19.9 µM.

Regarding `Cc1ccccc1NC(=O)Nc1ccccc1OCc1cc(=O)n2cccc(C)c2n1`, the IC50 was 4.24 µM.

With `Cc1ccc(S(=O)(=O)c2cnc(SCC(=O)Nc3ccc(Cl)cc3)nc2N)cc1C`, the IC50 is > 50 µM (inactive).

For `COc1cccc(NC(=O)c2nnn(-c3ccccc3)n2)c1`, the IC50 is > 50 µM (inactive).

For the compound `COc1ccc(CNC(=O)c2ccccc2N2C(=O)N3CCc4c([nH]c5ccccc45)[C@@]3(C)C2=O)cc1`, the IC50 was 42.1 µM.

As to `COc1ccc(C(=O)Nc2cc(-c3ccccn3)no2)cn1`, the IC50 is > 50 µM (inactive).

With `Cc1sc2nc(CN3CCCC3)nc(NCCc3ccc(Cl)cc3)c2c1C`, the IC50 is > 50 µM (inactive).

For `C[C@@H]1OC2=C(C(=O)c3cccc(O)c3C2=O)[C@H](O)[C@@H]1O`, the IC50 was 4.45 µM.

On to `CCOc1ccc(CCNC(=O)c2cccc3c2C(=O)N(CCOC)C3)cc1OCC`, for which the IC50 is > 50 µM (inactive).

Consider `CC(CCc1ccccc1)NC(=O)C(=O)c1cn(CC(=O)N2CCOCC2)c2ccccc12` (configuration not stated), for which the IC50 was > 50 µM (inactive).

Take `CC1=C(c2ccc(C)c(C)c2)S(=O)(=O)NC1=NCC(=O)NCCCc1ccccc1`: the 50% inhibitory concentration (IC50) is 46.8 µM.

With `CCn1cnc2c(-c3ccccc3)cn(CC(=O)NCc3ccc4c(c3)OCO4)c2c1=O`, the IC50 was > 50 µM (inactive).

Turning to `COc1ccc(NC(=O)C2CCCN(S(=O)(=O)N3CCCCCC3)C2)cc1` (configuration not stated), the IC50 was > 50 µM (inactive).

As to `Cc1ccc(-c2nc(Cn3nnc(-c4nc(-c5ccccn5)no4)c3C)c(C)o2)cc1`, the IC50 is > 50 µM (inactive).

Take `Cc1cc(C(F)(F)F)n(-c2ccc(NC(=O)Nc3cccc(C(F)(F)F)c3)cc2)n1`: the IC50 was 11.4 µM.

On to `O=c1sc2ccccc2c(=O)n1Cc1cccc(C(F)(F)F)c1`, for which the IC50 was > 50 µM (inactive).

For `CS(=O)(=O)n1nc(NCc2ccc(F)cc2)nc1NCc1ccc(F)cc1`, the IC50 is > 50 µM (inactive).

As to `c1cnc(-c2n[nH]c(C3CCN(C4CCNC4)CC3)n2)cn1` (configuration not stated), the IC50 is > 50 µM (inactive).

With `COc1ccc(CNC(=O)Nc2cccc3ccccc23)cc1`, the IC50 is 13.8 µM.

Consider `O=C(Nc1ccc2c(c1)N(C(=O)C1CCCC1)CC2)c1c(F)cccc1F`, for which the IC50 is > 50 µM (inactive).

For the compound `CN1c2ccccc2CN(CC(N)=O)CC1Cc1ccccc1` (configuration not stated), the IC50 was > 50 µM (inactive).

For the compound `COc1ccc(CNC(=O)CN2C(=O)C(C)=C(c3ccc(C)cc3)S2(=O)=O)cc1`, the IC50 is > 50 µM (inactive).

On to `Cc1cccc(-n2cnc(C(=O)NCc3ccc(F)cc3)c2)n1`, for which the IC50 was > 50 µM (inactive).

With `Cc1cc(=O)n(CC(=O)Nc2ccccc2F)c(Nc2ccc(F)cc2)n1`, the IC50 was 16.3 µM.

Consider `Cc1ccccc1NC(=O)c1ccc(N2CCCCC2)nn1`, for which the IC50 is > 50 µM (inactive).

With `COc1ccc(NC(=O)c2ccccc2OCC(=O)Nc2ccccc2C(F)(F)F)c(C)c1`, the IC50 is 29.8 µM.

`COC(=O)c1ccc(NC(=O)CSc2nnc(-c3ccc(O)cc3)n2Cc2ccco2)cc1`: the IC50 is > 50 µM (inactive).

For `O=C1Oc2nc3ccccc3cc2CN1Cc1ccco1`, the IC50 is 34.4 µM.

`CC(=O)N1CCOc2cc(S(=O)(=O)N3CCCC3c3cc(C)no3)ccc21` (configuration not stated): the IC50 was > 50 µM (inactive).

For the compound `O=C(NCc1ccccc1)Nc1cccc2ccccc12`, the IC50 was 40.3 µM.

In the case of `Cn1nccc1C(=O)N1CCCCC1c1ncc(Cc2ccc(Cl)cc2)o1` (configuration not stated), the IC50 was > 50 µM (inactive).

As for `O=C(OCc1ccc(F)cc1)c1ccc2ccccc2n1`, the IC50 was > 50 µM (inactive).

Consider `O=C(c1ccc(N2CCc3ccccc32)nn1)N1CCc2ccccc21`, for which the IC50 is > 50 µM (inactive).

`Nc1nc(-c2ccc[nH]2)cs1`: the IC50 is > 50 µM (inactive).
